Values joined by “and” are separate entries in the source; they are usually repeats but may differ in a detail not shown here. Equal entries are not always repeated.
Columns and labels:
A549 cells (control) = assay: Cell viability assay (CellTiter-Glo), normal A549 (control); format: cell-based; details: control A549; for luminescence reading, everage: mean of 6 wells
Experimental: The cell lines Jurkat (TIB-152), El4 (TIB-39), Daudi (ccl-213), RS4:11 (crl-1873), A549 (ccl-185), HepG2 (hb-8065) and PANC-1 (crl-1469) were purchased from ATCC (American Type Culture Collection), and MGC-803 (C6582) was purchased from Beyotime (https://www.beyotime.com/product/C6582.htm). […] Daudi and RS4:11 cells were cultured in RPMI-1640 medium (HyClone, SH30809.01) and 10% FBS (Gibco, 10099-141), whereas HepG2, MGC-803 and PANC-1 cells were cultured in MDEM (HyClone, SH30243.01). Cells were maintained at 37 °C under a humidified, 5% (v/v) CO2-containing atmosphere.
(§1) Cell viability was measured using CellTiter-Glo® 2.0 Reagent (Promega, G9242). […] After different inhibitors were added into serum-free medium and cultured for 4 h (RS4:11 for 6 h), FBS were supplemented to 10% and then incubated totally for 24 h or 48 h. Finally, the IC50 values were calculated based on measurements using a microplate reader (Thermo, Varioskan LUX). Statistical analysis was performed using software GraphPad Prism 7.0.

[1] = system: A549 cells overexpressing BCL-2 G101V; assay: Cell viability assay, A549 stably overexpressing BCL-2 G101V; format: cell-based; details: for luminescence reading (raw, replicate wells) / luminescence reading, everage / inhibition rate: BCL2/G101V A549; for luminescence reading, everage: mean of 6 wells
Experimental: as §1
Lentivirus packaging vectors pMDLg/pRRE, pRSV-Rev, and pVSV-G were obtained from Prof. Han Jiahuai’s lab (Xiamen University). Lentiviruses were produced using 3rd-generation lentivirus packaging plasmids transiently transfected into HEK293T cells with the constructs of interest using 0.25 M CaCl2. Media was changed after 16 h, and supernatants containing infectious virus particles were harvested 24 h later. A second viral harvest was made following a further 24 h incubation with fresh media. Virus containing supernatant was filtered through a […], and stored at 4 °C or −80 °C until being used. Typically, A549 cells were seeded into 10 cm cell culture dishes at 4 ~ 8 × 10^5 cells/cm^2. An equivalent volume of virus containing culture medium was added along with polybrene (Sigma) to a final concentration of 10 µg/mL. Cells were incubated at 37 °C for 20 h, before they were washed and resuspended in fresh culture media. The expression level of BCL-2 was measured by qPCR and western blot methods.

IC50 ([1]; Homo sapiens, A549, 48 h, CellTiter-Glo, n = 6): 4.1 ± 0.3 µM
Compound: CC1(C)CCC(CN2CCN(c3ccc(C(=O)NS(=O)(=O)c4ccc(NCC5CCOCC5)c([N+](=O)[O-])c4)c(Oc4cnc5[nH]ccc5c4)c3)CC2)=C(c2ccc(Cl)cc2)C1 [venetoclax]
inhibition rate (A549 cells (control); ABT-199 50 uM, replicate wells): 94%
luminescence reading (raw, replicate wells) (A549 cells (control); ABT-199 100 uM): 16550 and 16810 and 16440 and 16110 and 17860 and 16240
luminescence reading, everage (A549 cells (control); ABT-199 100 uM): 16668
luminescence reading (raw, replicate wells) (A549 cells (control); ABT-199 200 uM): 6435 and 6601 and 7137 and 6682 and 6762 and 7490
luminescence reading, everage (A549 cells (control); ABT-199 200 uM): 6851
luminescence reading (raw, replicate wells) ([1]; ABT-199 0.390625 uM): 626600 and 647800 and 649100 and 614500 and 623500 and 619300
luminescence reading, everage ([1]; ABT-199 0.390625 uM): 630133
inhibition rate ([1]; ABT-199 0.390625 uM, replicate wells): -3% and -6.36% and -6.57% and -0.889% and -2.37% and -1.68%
luminescence reading (raw, replicate wells) ([1]; ABT-199 0.78125 uM): 583300 and 568200 and 597700 and 560800 and 571600 and 528100
luminescence reading, everage ([1]; ABT-199 0.78125 uM): 568283
inhibition rate ([1]; ABT-199 0.78125 uM, replicate wells): 4.23% and 7% and 1.87% and 8% and 6% and 13%
luminescence reading (raw, replicate wells) ([1]; ABT-199 1.5625 uM): 398200 and 407800 and 413600 and 450500 and 408700 and 467800
luminescence reading, everage ([1]; ABT-199 1.5625 uM): 424433
inhibition rate ([1]; ABT-199 1.5625 uM, replicate wells): 33% and 32% and 26% and 23%
luminescence reading (raw, replicate wells) ([1]; ABT-199 3.125 uM): 271900 and 280300 and 266200 and 296500 and 277300 and 344500
luminescence reading, everage ([1]; ABT-199 3.125 uM): 289450
inhibition rate ([1]; ABT-199 3.125 uM, replicate wells): 54% and 56% and 51% and 43%
luminescence reading (raw, replicate wells) ([1]; ABT-199 6.25 uM): 262900 and 273800 and 273900 and 296400 and 264200 and 315700
luminescence reading, everage ([1]; ABT-199 6.25 uM): 281150
inhibition rate ([1]; ABT-199 6.25 uM, replicate wells): 51% and 48%
luminescence reading (raw, replicate wells) ([1]; ABT-199 12.5 uM): 184500 and 179700 and 182600 and 196200 and 190700 and 205800
luminescence reading, everage ([1]; ABT-199 12.5 uM): 189917
inhibition rate ([1]; ABT-199 12.5 uM, replicate wells): 68% and 69% and 66%
luminescence reading (raw, replicate wells) ([1]; ABT-199 25 uM): 98970 and 101200 and 102400 and 107200 and 99210 and 118800
luminescence reading, everage ([1]; ABT-199 25 uM): 104630
inhibition rate ([1]; ABT-199 25 uM, replicate wells): 83% and 82% and 80%
luminescence reading (raw, replicate wells) ([1]; ABT-199 50 uM): 50230 and 51420 and 49850 and 51590 and 53640 and 55790
luminescence reading, everage ([1]; ABT-199 50 uM): 52087
inhibition rate ([1]; ABT-199 50 uM, replicate wells): 91%
luminescence reading (raw, replicate wells) ([1]; ABT-199 100 uM): 16880 and 17260 and 16270 and 16910 and 17660 and 17950
luminescence reading, everage ([1]; ABT-199 100 uM): 17155
luminescence reading (raw, replicate wells) ([1]; ABT-199 200 uM): 5500 and 6087 and 6493 and 5130 and 5793 and 6329
luminescence reading, everage ([1]; ABT-199 200 uM): 5889
inhibition at 1.5625 µM ([1]; Homo sapiens, A549, BCL2/G101V A549, ABT-199 1.5625 uM, replicate wells, read-out: inhibition rate): 35%
inhibition at 3.125 µM ([1]; Homo sapiens, A549, BCL2/G101V A549, ABT-199 3.125 uM, replicate wells, read-out: inhibition rate): 55%
inhibition at 6.25 µM ([1]; Homo sapiens, A549, BCL2/G101V A549, ABT-199 6.25 uM, replicate wells, read-out: inhibition rate): 57%
inhibition at 12.5 µM ([1]; Homo sapiens, A549, BCL2/G101V A549, ABT-199 12.5 uM, replicate wells, read-out: inhibition rate): 70%
inhibition at 25 µM ([1]; Homo sapiens, A549, BCL2/G101V A549, ABT-199 25 uM, replicate wells, read-out: inhibition rate): 84%
inhibition at 50 µM ([1]; Homo sapiens, A549, BCL2/G101V A549, ABT-199 50 uM, replicate wells, read-out: inhibition rate): 92%
inhibition at 100 µM ([1]; Homo sapiens, A549, BCL2/G101V A549, ABT-199 100 uM, replicate wells, read-out: inhibition rate): 97%
inhibition at 200 µM ([1]; Homo sapiens, A549, BCL2/G101V A549, ABT-199 200 uM, replicate wells, read-out: inhibition rate): 99%

Source: PMC10874388, “Cyclic peptides discriminate BCL-2 and its clinical mutants from BCL-XL by engaging a single-residue discrepancy” (Nature Communications, 2024)
